# Laboratory results as given in paper PMC5929572, “Nucleobases and corresponding nucleosides display potent antiviral activities against dengue virus possibly through viral lethal mutagenesis” (PLoS Neglected Tropical Diseases, 2018).
# What was measured:
# [1] = Cell viability assay (MTS) in DENV replicon cells; assay type: cell-based, baby hamster; conditions: hamster, DENV replicon cells (BHK pD2-hRucPac-2ATG30), DENV replicon BHK cells, MTS, 72 h
# [2] = test system: DENV-2; experiment: Titer reduction assay in Huh-7 cells, plaque assay on Vero cells; assay type: cell-based, DENV-2 New Guinea C strain; conditions: Dengue virus, DENV2, m.o.i. 0.2, 72 h
# Experimental: (§1) Huh-7 cells were seeded in 12-well plates at a density of 4×10^5 cells per well in 1 mL culture medium. The next day, cells were washed and inoculated with DENV at a multiplicity of infection (m.o.i.) of 0.2 in 500μl infection medium (MEM containing 2% FBS and 10 mM HEPES). The inoculum was removed after 1h, cells were washed with PBS and then incubated in 1 mL MEM, 2% FBS, 1% pen/strep plus compound for 72 h. Viral supernatants were clarified by centrifugation for 5 min at 1500×g and aliquoted and stored at -80°C. Viral titers were determined using a plaque assay on Vero cells. Briefly, confluent Vero cell monolayers in 24-well plates were incubated at 37°C for 1 h with duplicate 300 μl samples of 10-fold serial dilutions of viral supernatants. The cells were then washed to remove unbound viral particles and overlaid with 500ul MEM containing 1.3% methylcellulose, 5% FBS and 10mM HEPES. After 5 days of incubation at 37°C and 5% CO2, cells were washed with PBS, fixed, and stained using 1% Giemsa. Infectious virus titer (pfu/mL) was determined using the following formula: number of plaques × dilution factor × (1/inoculation volume). The viral titer was presented as the mean of duplicate samples from a dilution yielding approximately 20–50 plaques per well.
# [3] = Cell viability assay (MTS) in Huh-7 cells; assay type: cell-based; conditions: human
# Experimental: The sensitivity of the cell lines to the compounds was examined using the 3-(4,5-dimethylthiazol-2-yl)-5-(3-carboxymethoxyphenyl)-2-(4-sulfophenyl)-2H-tetrazolium (MTS)-based tetrazolium reduction CellTiter 96 Aqueous Non-Radioactive cell proliferation assay (Promega G5430). The compounds were initially tested at 10 and 50 μM final concentrations. Each plate also contained DMSO alone, medium alone, and an inhibitory compound, 6. DENV replicon or Huh-7 cells were plated at a density of 1,500 or 8 × 10^3 cells, respectively, per well in 96-well plates containing 100 μl of culture medium overnight. Compounds were added to triplicate wells in culture medium and incubated for an additional 72 h. MTS reagent was then added to each well and incubated at 37°C in a humidified 5% CO2 atmosphere. The plates were read at various time points at a wavelength of 490 nm using a Molecular Devices M5e plate reader. Mean values of triplicate wells were determined and compared to the mean value for the wells that received DMSO alone. For compounds selected for dose-response experiments, the CC50 was determined by comparing cell viability for eight serial dilutions of the compound and DMSO treated cells using GraphPad Prism software.
# [4] = test system: DENV-2; experiment: Virus passage in presence of compound, supernatant titer by plaque assay; assay type: cell-based, DENV-2 New Guinea C strain; conditions: 3b 500 μM, Huh-7, passages 4 and 5; limit of detection 3.3 pfu/mL
# Experimental: as §1, with “After 5 days of incubation at 37°C and 5% CO2, cells were washed with PBS, fixed, and stained using 1% Giemsa.” left out, “The viral titer was presented as the mean of duplicate samples from a dilution yielding approximately 20–50 plaques per well.” left out
# (§2) Virus was passaged on Huh-7 cells supplemented with 200 μM 3a, 500 μM 3b or DMSO (0.5%). […] The virus titer in the harvested supernatant was determined by plating ten-fold serial dilutions onto single wells of a 24-well plate. […] Supernatant titer was determined from a single well where there were approximately 20–50 plaques when possible. […]
# [5] = test system: DENV-2; experiment: Virus passage in presence of compound, genome copy number by RT-qPCR (NS5); assay type: cell-based, DENV-2 New Guinea C strain; conditions: 3b 500 μM, Huh-7, passage 5; limit of detection 30 copies
# Experimental: For qPCR determination of viral genome copy number, viral RNA was isolated from 140 μL of drug-treated or DMSO-treated infected culture supernatant using QIAamp Viral RNA mini kit (Qiagen), following manufacturer’s protocol. Viral RNA was quantified using the TaqMan RNA-to-CT 1-Step qPCR Kit (Applied Biosystems). Primers used for qPCR were 5’-[…]-3’ (forward) and 5’-[…]-3’ (reverse) amplifying a region numbering 8928–8988 in the genome (numbering starting from the beginning of genome, accession number KM204118). The qPCR FAM probe sequence is 5’-[…]-3’. Serial 10-fold dilutions of plasmid containing the NS5 gene of DENV were used to generate a standard curve for the quantification of viral RNA genome copy number based on cycle threshold (CT) values. […] Sequences were aligned over a 980-base region that had adequate quality sequencing reads for all clones. Only mutations present in both the forward and reverse reads of a clone were counted. All incidence-based determinants of mutation frequency (Mf min, Mf max, Mfe) were calculated as described.
# as §2
# [6] = test system: DENV-2; experiment: Sequence analysis of prM/E region clones from passaged virus (mutation frequency); assay type: cell-based, DENV-2 New Guinea C strain
# Experimental: For qPCR determination of viral genome copy number, viral RNA was isolated from 140 μL of drug-treated or DMSO-treated infected culture supernatant using QIAamp Viral RNA mini kit (Qiagen), following manufacturer’s protocol. Viral RNA was quantified using the TaqMan RNA-to-CT 1-Step qPCR Kit (Applied Biosystems). Primers used for qPCR were 5’-[…]-3’ (forward) and 5’-[…]-3’ (reverse) amplifying a region numbering 8928–8988 in the genome (numbering starting from the beginning of genome, accession number KM204118). The qPCR FAM probe sequence is 5’-[…]-3’. Serial 10-fold dilutions of plasmid containing the NS5 gene of DENV were used to generate a standard curve for the quantification of viral RNA genome copy number based on cycle threshold (CT) values. The limit of detection for NS5 plasmid dilutions was 30 copies (S1 Fig). […] Statistical analysis via GraphPad Prism 5 software. To obtain sequence data from viral RNA isolated at each passage, cDNA was generated via M-MLV reverse transcriptase and random hexamers (New England Biolab Inc.) per manufacturer’s instructions. An approximately 1600-base fragment covering membrane protein (prM) and envelop protein gene (E) of DENV-2 viral genome was amplified using PfuUltra II Fusion HS DNA polymerase (Agilent) with primers prMEfor (5'- […]-3') and prMErev (5'- […] -3'). PCR products were purified using Qiaquick PCR purification kit (Qiagen) and then digested with EcoRI and ligated into pcDNA3.1 for sequencing. Sequence for approximately 40–50 individual clones per sample was obtained from the University of Minnesota Genomics Center. Sequences were aligned over a 980-base region that had adequate quality sequencing reads for all clones. Only mutations present in both the forward and reverse reads of a clone were counted. All incidence-based determinants of mutation frequency (Mf min, Mf max, Mfe) were calculated as described.
# Virus was passaged on Huh-7 cells supplemented with 200 μM 3a, 500 μM 3b or DMSO (0.5%). Huh-7 cells were seeded in 12-well plates and inoculated with DENV-2 as described for Titer reduction experiments above except an m.o.i. of 0.01 was used. After 3 days of compound treatment, 50 μL of the harvested supernatant was used to inoculate fresh Huh-7 cells in the continued presence of compound. The virus titer in the harvested supernatant was determined by plating ten-fold serial dilutions onto single wells of a 24-well plate. The wells were washed and overlaid as described in the Titer reduction assay above. If no plaques were obtained in any of the harvested supernatant dilutions, the undiluted supernatant was used. If plaques were not detectable, the virus titer was considered to be at the limit of detection, 1 plaque (3.3 pfu/mL). Supernatant titer was determined from a single well where there were approximately 20–50 plaques when possible. This experiment was repeated three times at the compound concentrations listed.
# [7] = test system: DENV replicon cells (BHK pD2-hRucPac-2ATG30); experiment: Cell viability assay (MTS) in DENV replicon cells; assay type: cell-based, baby hamster
# [8] = test system: DENV-2 viral replicon; experiment: microbe, parasite or virus in culture; assay type: cell-based; conditions: Dengue virus, DENV2, BHK, 72 h
# Experimental: Compounds were evaluated for antiviral properties using BHK cells containing a DENV-2 viral replicon. 1.5 × 10^3 replicon-containing cells per well were plated in white opaque 96-well plates in the absence of antibiotic selection and the next day, compounds dissolved in DMSO were added to triplicate wells in culture medium. The compounds were initially tested at 10 and 50 μM final concentrations and each plate also contained DMSO alone, medium alone, and 6. Three days later, medium was replaced with a 1:1000 dilution of ViVi-Ren Live Cell Substrate (Promega) in DME minus phenol red and 10% FBS. Luminescence was measured with a Molecular Devices M5e plate reader. Mean values of triplicate wells were determined and compared to the mean value for the wells that received DMSO alone. […] The EC50 was determined by comparing luciferase activity for eight serial dilutions of the compound and DMSO treated cells using GraphPad Prism software.
# [9] = passage 2, 3a 200 μM, 3b 500 μM, Huh-7
# [10] = passage 3, 3a 200 μM, 3b 500 μM, Huh-7
smiles,measurement,setting,value
NC(=O)c1nccn([C@@H]2O[C@H](CO)[C@@H](O)[C@H]2O)c1=O [Compound 3b],CC50 at 72 h,[1],> 1000 µM
same,EC50,[2],60 ± 22 µM
same,CC50 at 72 h,[3],> 1000 µM
same,infectious virus in supernatant,[4],undetectable
same,genomic RNA in supernatant,[5],undetectable
same,number of mutations per clone compared to DMSO,"[6]; 3a 200 μM passage 4, 3b 500 μM passage 3, p < 0.0001, Mann-Whitney U",significant difference
same,Mf max (maximum mutation frequency),[6]; [9],"15.3 per 10,000 nucleotides"
same,Mf min (minimum mutation frequency),[6]; [9],"10.7 per 10,000 nucleotides"
same,Mfe (entity level mutation frequency),[6]; [9],2.4 ×10^−3
same,Number of clones with mutation/total,[6]; [9],22/34
same,Number of different mutations,[6]; [9],33
same,Number of haplotypes,[6]; [9],22
same,Number of total mutations,[6]; [9],47
same,"Transition A→G, number of mutations",[6]; [9],6
same,"Transition C→U, number of mutations",[6]; [9],4
same,"Transition G→A, number of mutations",[6]; [9],6
same,"Transition U→C, number of mutations",[6]; [9],14
same,"Transversion G→U, number of mutations",[6]; [9],2
same,"Transversion U→G, number of mutations",[6]; [9],1
same,Mf max (maximum mutation frequency),[6]; [10],"15.8 per 10,000 nucleotides"
same,Mf min (minimum mutation frequency),[6]; [10],"4.7 per 10,000 nucleotides"
same,Mfe (entity level mutation frequency),[6]; [10],2.2 ×10^−3
same,Number of clones with mutation/total,[6]; [10],22/35
same,Number of different mutations,[6]; [10],15
same,Number of haplotypes,[6]; [10],17
same,Number of total mutations,[6]; [10],50
same,"Transition A→G, number of mutations",[6]; [10],4
same,"Transition C→U, number of mutations",[6]; [10],6
same,"Transition G→A, number of mutations",[6]; [10],1
same,"Transition U→C, number of mutations",[6]; [10],3
same,"Transversion U→A, number of mutations",[6]; [10],1
"Nc1nc(N)c2[nH]cnc2n1 [Compound 4a, 2,6-diaminopurine]",CC50 at 72 h,[1],13 ± 2.1 µM
"Nc1nc(N)c2ncn([C@@H]3O[C@H](CO)[C@@H](O)[C@H]3O)c2n1 [Compound 4b, 2-Aminoadenosine]",CC50 at 72 h,[1],31 ± 1.4 µM
same,"toxicity, in words",[7]; DENV replicon cells,too toxic
"NC(=O)c1nc(F)c[nH]c1=O [Compound 5a, 6-fluoro-3-hydroxypyrazine-2-carboxamide, reference compound]",EC50,[8],110 ± 30 µM
same,CC50 at 72 h,[1],> 1000 µM
same,CC50,"[7]; DENV replicon BHK cells, MTS, 72 h",> 665 µM
"COc1c(C)c2c(c(O)c1C/C=C(\C)CCC(=O)O)C(=O)OC2 [Compound 6, mycophenolic acid, reference compound]",EC50,[8],0.3 ± 0.03 µM
same,CC50 at 72 h,[1],1.4 ± 0.4 µM
